Reference: PubChem BioAssay AID1963835 (Molecular Pharmacology Branch, DTP, NCI, 2024)

Tested on: 699152-130-R-J1-PDC complex spheroid viability
Experiment: Anticancer human tumor 699152-130-R-J1-PDC patient-derived pancreatic carcinoma cell line growth inhibition [POLQ]
Settings: for IC50: curve of first compound; for viability, T/C: stronger effect = lower value
Method in brief: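 Three-cell-type spheroids modelling solid tumor plus stroma served as the readout system; POL inhibitors were tested individually and in combination, concentration ranges set by clinical Cmax where known.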

[1] = second compound 0.0316 µM, first compound 0.0316 µM
[2] = second compound 0.0316 µM, first compound 0.1 µM
[3] = second compound 0.0316 µM, first compound 0.316 µM
[4] = second compound 0.0316 µM, first compound 1 µM
[5] = second compound 0.0316 µM, first compound 3.16 µM
[6] = second compound 0.0316 µM, first compound 10 µM
[7] = second compound 0.1 µM, first compound 0.0316 µM
[8] = second compound 0.1 µM, first compound 0.1 µM
[9] = second compound 0.1 µM, first compound 0.316 µM
[10] = second compound 0.1 µM, first compound 1 µM
[11] = second compound 0.1 µM, first compound 3.16 µM
[12] = second compound 0.1 µM, first compound 10 µM
[13] = second compound 0.316 µM, first compound 0.0316 µM
[14] = second compound 0.316 µM, first compound 0.1 µM
[15] = second compound 0.316 µM, first compound 0.316 µM
[16] = second compound 0.316 µM, first compound 1 µM
[17] = second compound 0.316 µM, first compound 3.16 µM
[18] = second compound 0.316 µM, first compound 10 µM
[19] = second compound 1 µM, first compound 0.0316 µM
[20] = second compound 1 µM, first compound 0.1 µM
[21] = second compound 1 µM, first compound 0.316 µM
[22] = second compound 1 µM, first compound 1 µM
[23] = second compound 1 µM, first compound 3.16 µM
[24] = second compound 1 µM, first compound 10 µM
[25] = second compound 3.16 µM, first compound 0.0316 µM
[26] = second compound 3.16 µM, first compound 0.1 µM
[27] = second compound 3.16 µM, first compound 0.316 µM
[28] = second compound 3.16 µM, first compound 1 µM
[29] = second compound 3.16 µM, first compound 3.16 µM
[30] = second compound 3.16 µM, first compound 10 µM
[31] = second compound 10 µM, first compound 0.0316 µM
[32] = second compound 10 µM, first compound 0.1 µM
[33] = second compound 10 µM, first compound 0.316 µM
[34] = second compound 10 µM, first compound 1 µM
[35] = second compound 10 µM, first compound 3.16 µM
[36] = second compound 10 µM, first compound 10 µM
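Note: spheroids exposed to agents for 7 days before viability reading.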
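Throughout, for viability, T/C: percent of DMSO vehicle control viability so 100% = vehicle and 0% = no viable signal.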

Structure (SMILES): CCc1cc2c(N3CCc4c(cc(Cn5ccnc5)cc4-c4cn(C)nc4C(F)(F)F)C3=O)cc(C)nc2c(OC)n1 + Cc1cccc(N(C)C(=O)C2C(O)CCN2c2nc(C)cc(C(F)(F)F)c2C#N)c1
- IC50 (second compound 0.0316 µM): > 10 µM
- IC50 (second compound 0.1 µM): > 10 µM
- IC50 (second compound 0.316 µM): > 10 µM
- IC50 (second compound 1 µM): > 10 µM
- IC50 (second compound 3.16 µM): > 10 µM
- IC50 (second compound 10 µM): > 10 µM
- viability, T/C [1]: 88%
- viability, T/C [2]: 96.5%
- viability, T/C [3]: 89.3%
- viability, T/C [4]: 94.1%
- viability, T/C [5]: 92.9%
- viability, T/C [6]: 102%
- viability, T/C [7]: 90.8%
- viability, T/C [8]: 93.2%
- viability, T/C [9]: 95.4%
- viability, T/C [10]: 97.1%
- viability, T/C [11]: 91.1%
- viability, T/C [12]: 98%
- viability, T/C [13]: 94.3%
- viability, T/C [14]: 94.5%
- viability, T/C [15]: 96.9%
- viability, T/C [16]: 103%
- viability, T/C [17]: 93.8%
- viability, T/C [18]: 99.8%
- viability, T/C [19]: 97.1%
- viability, T/C [20]: 89.5%
- viability, T/C [21]: 98.8%
- viability, T/C [22]: 94%
- viability, T/C [23]: 91.9%
- viability, T/C [24]: 88.7%
- viability, T/C [25]: 104%
- viability, T/C [26]: 100%
- viability, T/C [27]: 92.2%
- viability, T/C [28]: 90.5%
- viability, T/C [29]: 101%
- viability, T/C [30]: 96.9%
- viability, T/C [31]: 84.8%
- viability, T/C [32]: 93.5%
- viability, T/C [33]: 94.5%
- viability, T/C [34]: 96.1%
- viability, T/C [35]: 86%
- viability, T/C [36]: 89.8%

Structure (SMILES): CNCc1ccc(-c2[nH]c3cc(F)cc4c3c2CCNC4=O)cc1 + Cc1cccc(N(C)C(=O)C2C(O)CCN2c2nc(C)cc(C(F)(F)F)c2C#N)c1
- IC50 (second compound 0.0316 µM): > 10 µM
- IC50 (second compound 0.1 µM): > 10 µM
- IC50 (second compound 0.316 µM): > 10 µM
- IC50 (second compound 1 µM): > 10 µM
- IC50 (second compound 3.16 µM): > 10 µM
- IC50 (second compound 10 µM): > 10 µM
- viability, T/C [1]: 95.5%
- viability, T/C [2]: 88.8%
- viability, T/C [3]: 101%
- viability, T/C [4]: 95.3%
- viability, T/C [5]: 113%
- viability, T/C [6]: 126%
- viability, T/C [7]: 88.8%
- viability, T/C [8]: 106%
- viability, T/C [9]: 92.2%
- viability, T/C [10]: 103%
- viability, T/C [11]: 105%
- viability, T/C [12]: 119%
- viability, T/C [13]: 95.5%
- viability, T/C [14]: 94.2%
- viability, T/C [15]: 96.6%
- viability, T/C [16]: 111%
- viability, T/C [17]: 123%
- viability, T/C [18]: 114%
- viability, T/C [19]: 92.7%
- viability, T/C [20]: 86.9%
- viability, T/C [21]: 88.9%
- viability, T/C [22]: 94.8%
- viability, T/C [23]: 99.4%
- viability, T/C [24]: 127%
- viability, T/C [25]: 101%
- viability, T/C [26]: 87.7%
- viability, T/C [27]: 96.6%
- viability, T/C [28]: 98.1%
- viability, T/C [29]: 115%
- viability, T/C [30]: 122%
- viability, T/C [31]: 99.2%
- viability, T/C [32]: 101%
- viability, T/C [33]: 105%
- viability, T/C [34]: 97.9%
- viability, T/C [35]: 109%
- viability, T/C [36]: 116%
